Laboratory results taken from patent US12161722B2, “Bifunctional heterocyclic compound having BTK degradation function via ubiquitin proteasome pathway, and use thereof” (KOREA RESEARCH INSTITUTE OF CHEMICAL TECHNOLOGY, priority 2021, dated 2024).

biological target: T1, WT BTK protein (Homo sapiens, UniProt Q06187); assay: BTK protein degradation assay (Western blotting), WT BTK; type: cell-based; settings: concentration range accounting for 50% degradation of WT BTK protein, TMD-8 or RAMOS cells, 24 hours
T1 construct: measured for intracellular BTK protein levels by Western blotting; endogenous in cells; host or cells: TMD-8 or RAMOS cells
Procedure, shortened: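 TMD-8 cells (1×10^6 cells/mL) treated 24 h with compound serial dilutions, then lysed in RIPA. Equal protein loads analysed by Western blot for BTK with GAPDH/β-actin as loading controls; activity binned by concentration giving 50% WT BTK degradation.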

T1 sequence (Q06187 whole entry): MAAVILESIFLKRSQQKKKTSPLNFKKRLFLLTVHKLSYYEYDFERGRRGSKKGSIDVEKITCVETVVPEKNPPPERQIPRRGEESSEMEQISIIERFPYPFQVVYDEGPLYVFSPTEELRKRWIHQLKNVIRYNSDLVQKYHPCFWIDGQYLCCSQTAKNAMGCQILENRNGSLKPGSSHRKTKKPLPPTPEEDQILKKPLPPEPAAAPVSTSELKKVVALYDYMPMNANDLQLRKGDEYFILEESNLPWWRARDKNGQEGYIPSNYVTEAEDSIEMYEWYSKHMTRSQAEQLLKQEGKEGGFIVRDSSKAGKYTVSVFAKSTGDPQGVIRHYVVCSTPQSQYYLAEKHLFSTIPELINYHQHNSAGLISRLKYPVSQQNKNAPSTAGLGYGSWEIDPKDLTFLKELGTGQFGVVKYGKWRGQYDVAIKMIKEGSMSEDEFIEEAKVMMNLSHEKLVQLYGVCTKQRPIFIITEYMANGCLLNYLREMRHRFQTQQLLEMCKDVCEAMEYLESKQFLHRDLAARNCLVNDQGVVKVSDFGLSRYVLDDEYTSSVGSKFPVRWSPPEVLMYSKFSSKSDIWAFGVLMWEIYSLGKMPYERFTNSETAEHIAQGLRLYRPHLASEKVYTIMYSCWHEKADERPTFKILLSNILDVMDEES

`Cc1cccc(C)c1Nc1nn(C)c2nc(Nc3ccc4c(c3)CN(C[C@@H]3CCN(c5ccc6c(c5)C(=O)N(C5CCC(=O)NC5=O)C6=O)C3)CC4)ncc12` (stereo partly drawn) [Compound 145, 5-((S)-3-((7-((3-((2,6-Dimethylphenyl)amino)-1-methyl-1H-pyrazolo[3,4-d]pyrimidin-6-yl)amino)-3,4-dihydroisoquinolin-2 (1H)-yl)methyl)pyrrolidin-1-yl)-2-(2,6-dioxopiperidin-3-yl)isoindoline-1,3-dione] and `Cc1cccc(C)c1Nc1nn(C)c2nc(Nc3ccc4c(c3)CN(CC3CN(c5ccc6c(c5)C(=O)N(C5CCC(=O)NC5=O)C6=O)C3)CC4)ncc12` (stereo not shown) [Compound 47, 5-(3-((7-((3-((2,6-Dimethylphenyl)amino)-1-methyl-1H-pyrazolo[3,4-d]pyrimidin-6-yl)amino)-3,4-dihydroisoquinolin-2 (1H)-yl)methyl)azetidin-1-yl)-2-(2,6-dioxopiperidin-3-yl)isoindoline-1,3-dione] fall in the same range of DC50: 0.1 to 10 nM for the first, 0.1 to 10 nM for the second.

`Cc1cccc(C)c1Nc1nn(C)c2nc(Nc3ccc(N4CCC(CN5CCN(c6ccc7c(c6)C(=O)N(C6CCC(=O)NC6=O)C7=O)CC5)CC4)nc3)ncc12` (stereo not shown) [Compound 135, 5-(4-((1-(5-((3-((2,6-Dimethylphenyl)amino)-1-methyl-1H-pyrazolo[3,4-d]pyrimidin-6-yl)amino)pyridin-2-yl)piperidin-4-yl)methyl)piperazin-1-yl)-2-(2,6-dioxopiperidin-3-yl)isoindoline-1,3-dione] and `Cc1cccc(C)c1Nc1nn(C)c2nc(Nc3ccc(N4CCN(CCC5CCN(c6ccc7c(c6)C(=O)N(C6CCC(=O)NC6=O)C7=O)CC5)CC4)nc3)ncc12` (stereo not shown) [Compound 157, 5-(4-(2-(4-(5-((3-((2,6-dimethylphenyl)amino)-1-methyl-1H-pyrazolo[3,4-d]pyrimidin-6-yl)amino)pyridin-2-yl)piperazin-1-yl)ethyl)piperidin-1-yl)-2-(2,6-dioxopiperidin-3-yl)isoindoline-1,3-dione] fall in the same range of DC50: 0.1 to 10 nM for the first, 0.1 to 10 nM for the second.

`Cc1cccc(C)c1Nc1nn(C)c2nc(Nc3ccc4c(c3)CN(CC3CCN(c5cc6c(cc5F)C(=O)N(C5CCC(=O)NC5=O)C6=O)CC3)CC4)ncc12` (stereo not shown) [Compound 208, 5-(4-((7-((3-((2,6-Dimethylphenyl)amino)-1-methyl-1H-pyrazolo[3,4-d]pyrimidin-6-yl)amino)-3,4-dihydroisoquinolin-2 (1H)-yl)methyl)piperidin-1-yl)-2-(2,6-dioxopiperidin-3-yl)-6-fluoroisoindoline-1,3-dione] and `Cc1cccc(C)c1Nc1nn(C)c2nc(Nc3ccc4c(c3)CN(CC3CN(C(=O)C5CCN(c6ccc7c(c6)C(=O)N(C6CCC(=O)NC6=O)C7=O)CC5)C3)CC4)ncc12` (stereo not shown) [Compound 40, 5-(4-(3-((7-((3-((2,6-Dimethylphenyl)amino)-1-methyl-1H-pyrazolo[3,4-d]pyrimidin-6-yl)amino)-3,4-dihydroisoquinolin-2 (1H)-yl)methyl)azetidine-1-carbonyl)piperidin-1-yl)-2-(2,6-dioxopiperidin-3-yl)isoindoline-1,3-dione] fall in the same range of DC50: 0.1 to 10 nM for the first, 0.1 to 10 nM for the second.

First: Cc1cccc(C)c1Nc1nn(C)c2nc(Nc3ccc4c(c3)CN(C(=O)COc3ccc5c(c3)C(=O)N(C3CCC(=O)NC3=O)C5=O)CC4)ncc12 (stereo not shown) [Compound 194, 5-(2-(7-((3-((2,6-Dimethylphenyl)amino)-1-methyl-1H-pyrazolo[3,4-d]pyrimidin-6-yl)amino)-3,4-dihydroisoquinolin-2 (1H)-yl)-2-oxoethoxy)-2-(2,6-dioxopiperidin-3-yl)isoindoline-1,3-dione]
Second: Cc1cccc(C)c1Nc1nn(C)c2nc(Nc3ccc4c(c3)CN(C(=O)COc3ccc5c(c3)CN(C3CCC(=O)NC3=O)C5=O)CC4)ncc12 (stereo not shown) [Compound 105, 3-(5-(2-(7-((3-((2,6-Dimethylphenyl)amino)-1-methyl-1H-pyrazolo[3,4-d]pyrimidin-6-yl)amino)-3,4-dihydroisoquinolin-2 (1H)-yl)-2-oxoethoxy)-1-oxoisoindolin-2-yl)piperidin-2,6-one]
The DC50 of the first is higher: 10 to 1000 nM for the first, 0.1 to 10 nM for the second.

`Cc1cccc(C)c1Nc1nn(C)c2nc(Nc3cnc(N4CCN(CC5CCN(c6ccc7c(c6)C(=O)N(C6CCC(=O)NC6=O)C7=O)CC5)CC4)nc3)ncc12` (stereo not shown) [Compound 171, 5-(4-((4-(5-((3-((2,6-Dimethylphenyl)amino)-1-methyl-1H-pyrazolo[3,4-d]pyrimidin-6-yl)amino)pyrimidin-2-yl)piperazin-1-yl)methyl)piperidin-1-yl)-2-(2,6-dioxopiperidin-3-yl)isoindoline-1,3-dione] and `Cc1cccc(C)c1Nc1nn(C)c2nc(Nc3ccc(C4CCN(C(=O)CC5CCN(c6ccc7c(c6)C(=O)N(C6CCC(=O)NC6=O)C7=O)CC5)CC4)cc3)ncc12` (stereo not shown) [Compound 222, 5-(4-(2-(4-(4-((3-((2,6-Dimethylphenyl)amino)-1-methyl-1H-pyrazolo[3,4-d]pyrimidin-6-yl)amino)phenyl)piperidin-1-yl)-2-oxoethyl)piperidin-1-yl)-2-(2,6-dioxopiperidin-3-yl)isoindoline-1,3-dione] fall in the same range of DC50: 0.1 to 10 nM for the first, 0.1 to 10 nM for the second.

Compared with `Cc1cccc(C)c1Nc1nn(C)c2nc(Nc3ccc4c(c3)CN(CC3(O)CCN(c5ccc6c(c5)C(=O)N(C5CCC(=O)NC5=O)C6=O)CC3)CC4)ncc12` (stereo not shown) [Compound 130, 5-(4-((7-((3-((2,6-dimethylphenyl)amino)-1-methyl-1H-pyrazolo[3,4-d]pyrimidin-6-yl)amino)-3,4-dihydroisoquinolin-2 (1H)-yl)methyl)-4-hydroxypiperidin-1-yl)-2-(2,6-dioxopiperidin-3-yl)isoindoline-1,3-dione], `Cc1cccc(C)c1Nc1nn(C)c2nc(Nc3ccc4c(c3)CN(CC(=O)N3CCN(c5ccc6c(c5)C(=O)N(C5CCC(=O)NC5=O)C6=O)CC3)CC4)ncc12` (stereo not shown) [Compound 95, 5-(4-(2-(7-((3-((2,6-dimethylphenyl)amino)-1-methyl-1H-pyrazolo[3,4-d]pyrimidin-6-yl)amino)-3,4-dihydroisoquinolin-2 (1H)-yl)acetyl)piperazin-1-yl)-2-(2,6-dioxopiperidin-3-yl)isoindoline-1,3-dione] is higher in DC50: 0.1 to 10 nM for the first, 10 to 1000 nM for the second.

`Cc1cccc(C)c1Nc1nn(C)c2nc(Nc3ccc4c(c3)CN(CC3CCN(c5ccc6c(n5)CN(C5CCC(=O)NC5=O)C6=O)CC3)CC4)ncc12` (stereo not shown) [Compound 132, 3-(2-(4-((7-((3-((2,6-dimethylphenyl)amino)-1-methyl-1H-pyrazolo[3,4-d]pyrimidin-6-yl)amino)-3,4-dihydroisoquinolin-2 (1H)-yl)methyl)piperidin-1-yl)-5-oxo-5,7-dihydro-6H-pyrrolo[3,4-b]pyridin-6-yl)piperidin-2,6-one] and `Cc1cccc(C)c1Nc1nn(C)c2nc(Nc3ccc4c(c3)CN(C3CCN(CC5CN(c6ccc7c(c6)C(=O)N(C6CCC(=O)NC6=O)C7=O)C5)CC3)CC4)ncc12` (stereo not shown) [Compound 138, 5-(3-((4-(7-((3-((2,6-Dimethylphenyl)amino)-1-methyl-1H-pyrazolo[3,4-d]pyrimidin-6-yl)amino)-3,4-dihydroisoquinolin-2 (1H)-yl)piperidin-1-yl)methyl)azetidin-1-yl)-2-(2,6-dioxopiperidin-3-yl)isoindoline-1,3-dione] fall in the same range of DC50: 0.1 to 10 nM for the first, 0.1 to 10 nM for the second.

First: Cc1cccc(C)c1Nc1nn(C)c2nc(Nc3ccc(C4CCN(C(=O)CC5CCN(c6ccc7c(c6)C(=O)N(C6CCC(=O)NC6=O)C7=O)CC5)CC4)c(F)c3)ncc12 (stereo not shown) [Compound 227, 5-(4-(2-(4-(4-((3-((2,6-dimethylphenyl)amino)-1-methyl-1H-pyrazolo[3,4-d]pyrimidin-6-yl)amino)-2-fluorophenyl)piperidin-1-yl)-2-oxoethyl)piperidin-1-yl)-2-(2,6-dioxopiperidin-3-yl)isoindoline-1,3-dione]
Second: Cc1cccc(C)c1Nc1nn(C)c2nc(Nc3ccc(C4CCN(C(=O)C5(F)CCN(c6cc7c(cc6F)C(=O)N(C6CCC(=O)NC6=O)C7=O)CC5)CC4)cc3)ncc12 (stereo not shown) [Compound 254, 5-(4-(4-(4-((3-((2,6-dimethylphenyl)amino)-1-methyl-1H-pyrazolo[3,4-d]pyrimidin-6-yl)amino)phenyl)piperidine-1-carbonyl)-4-fluoropiperidin-1-yl)-2-(2,6-dioxopiperidin-3-yl)-6-fluoroisoindoline-1,3-dione]
The DC50 of the first is lower: 0.1 to 10 nM for the first, 10 to 1000 nM for the second.

First: Cc1cc(NC(=O)c2cccc(C(F)(F)F)c2)ccc1Nc1nn(C)c2nc(Nc3ccc4c(c3)CN(CC3CCN(c5ccc6c(c5)C(=O)N(C5CCC(=O)NC5=O)C6=O)CC3)CC4)ncc12 (stereo not shown) [Compound 122, N-(4-((6-((2-((1-(2-(2,6-Dioxopiperidin-3-yl)-1,3-dioxoisoindolin-5-yl)piperidin-4-yl)methyl)-1,2,3,4-tetrahydroisoquinolin-7-yl)amino)-1-methyl-1H-pyrazolo[3,4-d]pyrimidin-3-yl)amino)-3-methylphenyl)-3-(trifluoromethyl)benzamide]
Second: Cc1cccc(C)c1Nc1nn(C)c2nc(Nc3ccc4c(c3)CN(C(=O)C3(F)CCN(C(=O)COc5ccc6c(c5)C(=O)N(C5CCC(=O)NC5=O)C6=O)CC3)CC4)ncc12 (stereo not shown) [Compound 248, 5-(2-(4-(7-((3-((2,6-Dimethylphenyl)amino)-1-methyl-1H-pyrazolo[3,4-d]pyrimidin-6-yl)amino)-1,2,3,4-tetrahydroisoquinoline-2-carbonyl)-4-fluoropiperidin-1-yl)-2-oxoethoxy)-2-(2,6-dioxopiperidin-3-yl)isoindoline-1,3-dione]
The DC50 of the first is higher: 10 to 1000 nM for the first, 0.1 to 10 nM for the second.

`Cc1cccc(C)c1Nc1nn(C)c2nc(Nc3ccc4c(c3)CN(C(=O)C3CCN(C(=O)CNc5ccc6c(=O)n(C7CCC(=O)NC7=O)nnc6c5)CC3)CC4)ncc12` (stereo not shown) [Compound 68, 3-(7-((2-(4-(7-((3-((2,6-Dimethylphenyl)amino)-1-methyl-1H-pyrazolo[3,4-d]pyrimidin-6-yl)amino)-1,2,3,4-tetrahydroisoquinoline-2-carbonyl)piperidin-1-yl)-2-oxoethyl)amino)-4-oxobenzo[d][1,2,3]triazin-3 (4H)-yl)piperidin-2,6-one] gave a DC50 of 10 to 1000 nM.
